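Exposure lasted 48 hours, with cells grown in 96-well plates and compounds tested at five concentrations. Abbreviation: GI50, concentration required for 50% inhibition of growth.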 Active and inactive are the calls of the source. Rule as the data show it: active = GI50 up to about 1.1 µM and inactive = higher.
How the values were obtained:
Test in all cases: growth of human tumour cells (NCI), 48 h
M14 = system: M14
EKVX = system: EKVX
A549 = system: A549
RPMI-8226 = system: RPMI-8226
SN12C = system: SN12C
SF-539 = system: SF-539
ACHN = system: ACHN
UO-31 = system: UO-31
SR = system: SR
Hs-578T = system: Hs-578T
MOLT-4 = system: MOLT-4
DU-145 = system: DU-145
MDA-N = system: MDA-N
HT-29 = system: HT-29
SK-MEL-28 = system: SK-MEL-28
UACC-257 = system: UACC-257
LOX IMVI = system: LOX IMVI
HOP-62 = system: HOP-62
OVCAR-5 = system: OVCAR-5
IGROV-1 = system: IGROV-1
SK-MEL-5 = system: SK-MEL-5
HCT-116 = system: HCT-116
CAKI-1 = system: CAKI-1
HOP-92 = system: HOP-92
K562 = system: K562
CCRF-CEM = system: CCRF-CEM
OVCAR-4 = system: OVCAR-4
HCC 2998 = system: HCC 2998
RXF 393 = system: RXF 393
HL-60 = system: HL-60
UACC-62 = system: UACC-62
OVCAR-8 = system: OVCAR-8
SF-295 = system: SF-295
SNB-19 = system: SNB-19
NCI-H460 = system: NCI-H460
NCI/ADR-RES = system: NCI/ADR-RES
U-251 = system: U-251
MCF7 = system: MCF7
BT-549 = system: BT-549
SK-MEL-2 = system: SK-MEL-2
SW-620 = system: SW-620
SF-268 = system: SF-268
OVCAR-3 = system: OVCAR-3
PC-3 = system: PC-3
SNB-75 = system: SNB-75
HCT-15 = system: HCT-15
TK-10 = system: TK-10
MDA-MB-231 = system: MDA-MB-231
SK-OV-3 = system: SK-OV-3
NCI-H23 = system: NCI-H23
A498 = system: A498
786-0 = system: 786-0
COLO 205 = system: COLO 205
T47D = system: T47D
NCI-H226 = system: NCI-H226
KM12 = system: KM12
MDA-MB-435 = system: MDA-MB-435

For Nc1ccc2[nH]c(C(=O)N3CC(CCl)c4c3cc(N)c3ccccc43)cc2c1 (configuration not stated), the GI50 (M14) was 0.0107 µM (active), the GI50 (EKVX) was < 0.01 µM (active) and the GI50 (A549) was < 0.01 µM (active). The GI50 (RPMI-8226) was < 0.0108 µM (active), the GI50 (SN12C) was < 0.01 µM (active) and the GI50 (SF-539) was < 0.01 µM (active). The GI50 (ACHN) was < 0.01 µM (active), the GI50 (UO-31) was 0.0114 µM (active) and the GI50 (SR) was < 0.01 µM (active). The GI50 (Hs-578T) was 0.0204 µM (active), the GI50 (MOLT-4) was < 0.01 µM (active) and the GI50 (DU-145) was < 0.01 µM (active). For the same compound, the GI50 (MDA-N) was < 0.01 µM (active), the GI50 (HT-29) was < 0.01 µM (active) and the GI50 (SK-MEL-28) was 0.013 µM (active). For the same compound, the GI50 (UACC-257) was 0.0142 µM (active), the GI50 (LOX IMVI) was < 0.01 µM (active) and the GI50 (HOP-62) was < 0.01 µM (active). The GI50 (OVCAR-5) was < 0.01 µM (active), the GI50 (IGROV-1) was < 0.01 µM (active) and the GI50 (SK-MEL-5) was < 0.01 µM (active). The GI50 (HCT-116) was < 0.01 µM (active), the GI50 (CAKI-1) was < 0.01 µM (active) and the GI50 (HOP-92) was 0.0115 µM (active). For the same compound, the GI50 (K562) was < 0.01 µM (active), the GI50 (CCRF-CEM) was < 0.01 µM (active) and the GI50 (OVCAR-4) was < 0.01 µM (active). The GI50 (HCC 2998) was < 0.01 µM (active), the GI50 (RXF 393) was < 0.01 µM (active) and the GI50 (HL-60) was < 0.01 µM (active). The GI50 (UACC-62) was < 0.01 µM (active), the GI50 (OVCAR-8) was < 0.01 µM (active) and the GI50 (SF-295) was < 0.01 µM (active). For the same compound, the GI50 (SNB-19) was < 0.0138 µM (active), the GI50 (NCI-H460) was < 0.01 µM (active) and the GI50 (NCI/ADR-RES) was < 0.01 µM (active). The GI50 (U-251) was < 0.01 µM (active), the GI50 (MCF7) was < 0.01 µM (active) and the GI50 (BT-549) was < 0.016 µM (active). The GI50 (SK-MEL-2) was < 0.01 µM (active), the GI50 (SW-620) was < 0.01 µM (active) and the GI50 (SF-268) was < 0.01 µM (active). The GI50 (OVCAR-3) was 0.0166 µM (active), the GI50 (PC-3) was < 0.01 µM (active) and the GI50 (SNB-75) was < 0.01 µM (active). For the same compound, the GI50 (HCT-15) was < 0.01 µM, the GI50 (TK-10) was < 0.01 µM (active) and the GI50 (MDA-MB-231) was < 0.0208 µM (active). The GI50 (SK-OV-3) was 0.0175 µM (active), the GI50 (NCI-H23) was < 0.01 µM (active) and the GI50 (A498) was < 0.01 µM (active). The GI50 (786-0) was < 0.01 µM (active), the GI50 (COLO 205) was 0.0101 µM (active) and the GI50 (T47D) was 0.0119 µM (active). The GI50 (NCI-H226) was 0.0105 µM (active), the GI50 (KM12) was 0.0114 µM (active) and the GI50 (MDA-MB-435) was 0.011 µM (active).
